Data: patent US10392422B2, “Macrocyclic broad spectrum antibiotics” (priority 2014, dated 2019)

Columns and labels:
[1] = system: MRSA strain USA300; experiment: Checkerboard synergy assay (2D MIC) with imipenem; type: cell-based, Staphylococcus aureus; conditions: many points of the isobologram (FIG. 1); synergy defined as sum of the FICs ≤0.5; 35° C., 22 hours
Procedure: 2D MIC assay or “checkerboard assays” are the most common method used to quantify synergistic or antagonistic interactions between two antibiotics with respect to potency (Hallander, H. O., et al., Antimicrob. Agents Chemother. 1982 22:743-752). In this assay in each axis of a 96-well plate contains a 2-fold dilution of a given agent, such that each well contains a unique combination of the agents being tested.
To create a checkerboard dilution scheme, imipenem was diluted in Mueller Hinton II Broth+0.002% Tween-80 to twice the final desired concentration, and six 2-fold serial dilutions were performed in the same media yielding seven imipenem concentrations. Dilutions of Compound 155 were prepared similarly except that ten dilutions were performed for a total of eleven concentrations. […]
MRSA strain USA300 was grown overnight at 35° C. on Mueller Hinton Agar plates, and colonies were suspended in Mueller Hinton II Broth+0.002% Tween-80 to a final density of 1*10^7 cfu/ml. […] The plate was incubated at 35° C. for 22 hours after which growth was determined via visual inspection. For each sub-MIC concentration of imipenem, the concentration of Compound 155 required to prevent visible growth was recorded, and the fractional inhibitor concentration (FIC) of each agent was calculated by dividing the concentration of each agent by MIC of the agent alone. […]

[2] = system: MRSA strain USA300; experiment: Time-kill assay; type: cell-based, Staphylococcus aureus; conditions: 1 ug/mL imipenem plus 16 ug/mL Compound 155; initial density 1*10^7 cfu/mL; FIG. 2
Procedure: Time-kill experiments enable quantification of rate of bacterial growth or death in the presence of a fixed concentration of one or more antibiotics (Arhin. F., et. al., Current Protocols in Microbiology 17.1.1-17.1.22, February 2010). Time-kill experiments were performed in 96-well incubation plates using Mueller Hinton II Broth+0.002% Tween-80 as the growth media. Individual wells contained imipenem alone, Compound 155 alone, or a combination of both agents at various concentrations. MRSA strain USA300 was grown overnight at 35° C. on Mueller Hinton Agar plates, and colonies were suspended in Mueller Hinton II Broth+0.002% Tween-80 to a final density of 2*10^8 cfu/mL. To each well of the incubation plates, 5 uL of this suspension were added, resulting in an initial density of 1*10^7 cfu/mL. Plates were incubated at 35° C., and at various time points 30 ul samples were removed, mixed 1:1 with 25 mg/ml activated carbon, serially diluted in sterile phosphate buffered saline supplemented with 0.05% Tween 20, and spotted onto Mueller Hinton Agar plates to enable cfu quantification. Colonies were counted and the cfu/ml at each time point calculated by based on the dilution factor and volume spotted.

How did the “sum of the FICs (fractional inhibitor concentration) of Compound 155 and imipenem” value [1] turn out when `CCCCCCCCCCNCCC(=O)N[C@@H](CCCCN)C(=O)N(C)[C@@H]1C(=O)N[C@@H](C)C(=O)N[C@H](C(=O)N[C@@H](C)C(=O)N2CCC[C@H]2C(N)=O)Cc2ccc(O)c(c2)-c2cc1ccc2O.O=CO` [Compound 155] was run?
Its value is < 0.5.

What about the “time-kill: reduction of viable cells, combination compared with either agent alone” value [2] of the same compound?
Its value is “synergistic”.
